Several values for one entry are separate records, joined by “and”; a condition that tells them apart may be missing. Equal values may be shown once. Toxic doses and inconclusive results are not listed.
Test system: CD2F1 mice, intracerebral L1210 leukemia, survival T/C
Experiment: NCI In Vivo Anticancer Drug Screen. Data for tumor model L1210 Leukemia (intracerebral) in CD2F1 (CDF1) mice
Settings: higher = longer survival
Method: The antitumor activity of compounds was measured in mice bearing transplantable tumors. Survival or tumor size were measured and the results are expressed as the measurement made in the treated group (T) divided by the measurement made in the vehicle treated control group (C). The tumor model used in this assay is L1210 Leukemia (intracerebral) in CD2F1 (CDF1) mice

[1] = endpoint: mean survival time, dose: 0.25 mg/kg/injection, schedule: Q01DX009 (ip), vehicle: saline
[2] = endpoint: mean survival time, dose: 0.5 mg/kg/injection, schedule: Q01DX009 (ip), vehicle: saline

C1CN(P2(N3CC3)=NP(N3CC3)(N3CC3)=NP(N3CC3)(N3CC3)=N2)CCO1 (stereo unspecified)
T/C (endpoint: median survival time, dose: 20.0 mg/kg/injection, schedule: Q01DX001 (ip), vehicle: saline): 92 % of control
T/C (endpoint: median survival time, dose: 40.0 mg/kg/injection, schedule: Q01DX001 (ip), vehicle: saline): 95 % of control
T/C (endpoint: median survival time, dose: 80.0 mg/kg/injection, schedule: Q01DX001 (ip), vehicle: saline): 101 % of control

COc1cc2c(c3c1c(=O)c1ccccc1n3C)C=CC(C)(C)O2
T/C (endpoint: median survival time, dose: 128.0 mg/kg/injection, schedule: Q01DX005 (ip), vehicle: Klucel (hydroxypropylcellulose) (HPC)): 108 % of control

O=C1C=C(N2CC2)C(=O)C=C1N1CC1
T/C (endpoint: mean survival time, dose: 0.12 mg/kg/injection, schedule: Q01DX009 (ip), vehicle: saline): 102 % of control and 103 % of control and 104 % of control
T/C [1]: 102 % of control and 103 % of control and 108 % of control
T/C [2]: 103 % of control and 106 % of control and 108 % of control
T/C (endpoint: mean survival time, dose: 1.0 mg/kg/injection, schedule: Q01DX009 (ip), vehicle: saline): 89 % of control and 90 % of control and 98 % of control

CS(=O)(=O)CS(=O)(=O)OCCCl
T/C (endpoint: median survival time, dose: 6.25 mg/kg/injection, schedule: Q01DX009 (ip), vehicle: saline): 104 % of control
T/C (endpoint: median survival time, dose: 12.5 mg/kg/injection, schedule: Q01DX009 (ip), vehicle: saline): 112 % of control
T/C (endpoint: median survival time, dose: 50.0 mg/kg/injection, schedule: Q01DX009 (ip), vehicle: saline): 209 % of control

CCC(=O)O[C@H]1CC[C@H]2[C@@H]3CC[C@H]4CC(=O)[C@H](C)C[C@]4(C)[C@H]3CC[C@]12C
T/C (endpoint: median survival time, dose: 8.0 mg/kg/injection, schedule: Q01DX009 (ip), vehicle: saline with Tween-80): 105 % of control and 115 % of control
T/C (endpoint: median survival time, dose: 16.0 mg/kg/injection, schedule: Q01DX009 (ip), vehicle: saline with Tween-80): 105 % of control
T/C (endpoint: median survival time, dose: 32.0 mg/kg/injection, schedule: Q01DX009 (ip), vehicle: saline with Tween-80): 105 % of control
T/C (endpoint: median survival time, dose: 64.0 mg/kg/injection, schedule: Q01DX009 (ip), vehicle: saline with Tween-80): 122 % of control and 101 % of control
T/C (endpoint: median survival time, dose: 128.0 mg/kg/injection, schedule: Q01DX009 (ip), vehicle: saline with Tween-80): 103 % of control
T/C (endpoint: median survival time, dose: 256.0 mg/kg/injection, schedule: Q01DX009 (ip), vehicle: saline with Tween-80): 104 % of control
T/C (endpoint: median survival time, dose: 512.0 mg/kg/injection, schedule: Q01DX009 (ip), vehicle: saline with Tween-80): 121 % of control and 103 % of control

CC(CN1CC(=O)NC(=O)C1)N1CC(=O)NC(=O)C1 (stereo unspecified)
T/C (endpoint: mean survival time, dose: 8.0 mg/kg/injection, schedule: Q01DX009 (ip), vehicle: Klucel (hydroxypropylcellulose) (HPC)): 123 % of control
T/C (endpoint: mean survival time, dose: 32.0 mg/kg/injection, schedule: Q01DX009 (ip), vehicle: Klucel (hydroxypropylcellulose) (HPC)): 152 % of control
T/C (endpoint: mean survival time, dose: 64.0 mg/kg/injection, schedule: Q01DX009 (ip), vehicle: Klucel (hydroxypropylcellulose) (HPC)): 163 % of control
T/C (endpoint: mean survival time, dose: 200.0 mg/kg/injection, schedule: Q04DX003 (ip), vehicle: steriod suspending solution): 162 % of control

Nc1nc(=S)c2[nH]cnc2[nH]1
T/C (endpoint: mean survival time, dose: 0.13 mg/kg/injection, schedule: Q01DX009 (ip), vehicle: other): 102 % of control
T/C (endpoint: mean survival time, dose: 0.25 mg/kg/injection, schedule: Q01DX009 (ip), vehicle: other): 111 % of control
T/C (endpoint: mean survival time, dose: 0.5 mg/kg/injection, schedule: Q01DX009 (ip), vehicle: other): 108 % of control
T/C (endpoint: mean survival time, dose: 1.0 mg/kg/injection, schedule: Q01DX009 (ip), vehicle: other): 114 % of control

O=C1C(NCCO)=C(N2CC2)C(=O)C(NCCO)=C1N1CC1
T/C (endpoint: mean survival time, dose: 0.37 mg/kg/injection, schedule: Q01DX009 (ip), vehicle: saline): 111 % of control
T/C (endpoint: mean survival time, dose: 1.5 mg/kg/injection, schedule: Q01DX009 (ip), vehicle: saline): 119 % of control and 122 % of control

CC[C@H]1CN2CCc3cc(OC)c(OC)cc3[C@@H]2C[C@@H]1C[C@H]1NCCc2cc(OC)c(OC)cc21
T/C (endpoint: median survival time, dose: 2.0 mg/kg/injection, schedule: Q01DX005 (ip), vehicle: Klucel (hydroxypropylcellulose) (HPC)): 98 % of control
T/C (endpoint: median survival time, dose: 4.0 mg/kg/injection, schedule: Q01DX005 (ip), vehicle: Klucel (hydroxypropylcellulose) (HPC)): 101 % of control
T/C (endpoint: median survival time, dose: 8.0 mg/kg/injection, schedule: Q01DX005 (ip), vehicle: Klucel (hydroxypropylcellulose) (HPC)): 115 % of control

CN(C)N=Nc1ccccc1Cl
T/C (endpoint: median survival time, dose: 8.0 mg/kg/injection, schedule: Q01DX005 (ip), vehicle: saline + alcohol): 98 % of control
T/C (endpoint: median survival time, dose: 16.0 mg/kg/injection, schedule: Q01DX005 (ip), vehicle: saline + alcohol): 106 % of control
T/C (endpoint: median survival time, dose: 32.0 mg/kg/injection, schedule: Q01DX005 (ip), vehicle: saline + alcohol): 102 % of control
T/C (endpoint: median survival time, dose: 64.0 mg/kg/injection, schedule: Q01DX005 (ip), vehicle: saline + alcohol): 102 % of control
T/C (endpoint: median survival time, dose: 128.0 mg/kg/injection, schedule: Q01DX005 (ip), vehicle: saline + alcohol): 105 % of control

NC(=S)N/N=C/c1ccc(O)cn1
T/C (endpoint: median survival time, dose: 12.0 mg/kg/injection, schedule: Q01DX005 (ip), vehicle: saline): 95 % of control and 105 % of control
T/C (endpoint: median survival time, dose: 24.0 mg/kg/injection, schedule: Q01DX005 (ip), vehicle: saline): 107 % of control and 115 % of control
T/C (endpoint: median survival time, dose: 48.0 mg/kg/injection, schedule: Q01DX005 (ip), vehicle: saline): 113 % of control and 117 % of control
T/C (endpoint: median survival time, dose: 96.0 mg/kg/injection, schedule: Q01DX005 (ip), vehicle: saline): 121 % of control

O=NN(CCCl)C(=O)NC1CCC(=O)NC1=O (stereo unspecified)
T/C (endpoint: median survival time, dose: 2.0 mg/kg/injection, schedule: Q01DX001 (ip), vehicle: saline + alcohol): 112 % of control
T/C (endpoint: median survival time, dose: 8.0 mg/kg/injection, schedule: Q01DX001 (ip), vehicle: DMSO): 602 % of control
T/C (endpoint: median survival time, dose: 8.0 mg/kg/injection, schedule: Q01DX001 (ip), vehicle: saline + alcohol): 192 % of control
T/C (endpoint: median survival time, dose: 8.0 mg/kg/injection, schedule: Q01DX001 (oral), vehicle: saline + alcohol): 168 % of control
T/C (endpoint: median survival time, dose: 16.0 mg/kg/injection, schedule: Q01DX001 (ip), vehicle: DMSO): 215 % of control
T/C (endpoint: median survival time, dose: 16.0 mg/kg/injection, schedule: Q01DX001 (ip), vehicle: saline + alcohol): 224 % of control
T/C (endpoint: median survival time, dose: 16.0 mg/kg/injection, schedule: Q01DX001 (oral), vehicle: saline + alcohol): 236 % of control
T/C (endpoint: median survival time, dose: 32.0 mg/kg/injection, schedule: Q01DX001 (ip), vehicle: DMSO): 95 % of control
T/C (endpoint: median survival time, dose: 32.0 mg/kg/injection, schedule: Q01DX001 (ip), vehicle: saline + alcohol): 389 % of control
T/C (endpoint: median survival time, dose: 32.0 mg/kg/injection, schedule: Q01DX001 (oral), vehicle: saline + alcohol): 164 % of control
T/C (endpoint: median survival time, dose: 64.0 mg/kg/injection, schedule: Q01DX001 (oral), vehicle: saline + alcohol): 97 % of control

CN(C)N=Nc1ccccc1
T/C (endpoint: mean survival time, dose: 6.25 mg/kg/injection, schedule: Q01DX009 (ip), vehicle: Klucel (hydroxypropylcellulose) (HPC)): 101 % of control and 104 % of control and 112 % of control
T/C (endpoint: mean survival time, dose: 12.5 mg/kg/injection, schedule: Q01DX009 (ip), vehicle: Klucel (hydroxypropylcellulose) (HPC)): 109 % of control and 112 % of control and 113 % of control
T/C (endpoint: mean survival time, dose: 25.0 mg/kg/injection, schedule: Q01DX009 (ip), vehicle: Klucel (hydroxypropylcellulose) (HPC)): 118 % of control
T/C (endpoint: mean survival time, dose: 50.0 mg/kg/injection, schedule: Q01DX009 (ip), vehicle: Klucel (hydroxypropylcellulose) (HPC)): 120 % of control and 107 % of control and 115 % of control

COc1cc([C@@H]2c3cc4c(cc3[C@@H](OC3OC5CO[C@@H](c6cccs6)OC5C(O)C3O)[C@H]3COC(=O)[C@H]23)OCO4)cc(OC)c1O (stereo partly specified)
T/C (endpoint: median survival time, dose: 0.25 mg/kg/injection, schedule: Q01DX009 (ip), vehicle: saline): 101 % of control and 108 % of control
T/C (endpoint: median survival time, dose: 0.5 mg/kg/injection, schedule: Q01DX009 (ip), vehicle: saline): 108 % of control and 111 % of control
T/C (endpoint: median survival time, dose: 1.0 mg/kg/injection, schedule: Q01DX009 (ip), vehicle: saline): 111 % of control and 116 % of control
T/C (endpoint: median survival time, dose: 2.0 mg/kg/injection, schedule: Q01DX009 (ip), vehicle: saline): 124 % of control and 114 % of control
T/C (endpoint: median survival time, dose: 4.0 mg/kg/injection, schedule: Q01DX009 (ip), vehicle: saline): 122 % of control and 104 % of control
T/C (endpoint: median survival time, dose: 8.0 mg/kg/injection, schedule: Q01DX009 (ip), vehicle: saline): 88 % of control

CC(=O)OC1(C)CC(C)C(=O)C(C(O)CC2CC(=O)NC(=O)C2)C1 (stereo unspecified)
T/C (endpoint: mean survival time, dose: 0.04 mg/kg/injection, schedule: Q01DX009 (ip), vehicle: saline): 101 % of control
T/C (endpoint: mean survival time, dose: 0.06 mg/kg/injection, schedule: Q01DX009 (ip), vehicle: saline): 101 % of control
T/C (endpoint: mean survival time, dose: 0.13 mg/kg/injection, schedule: Q01DX009 (ip), vehicle: saline): 108 % of control
T/C [1]: 111 % of control
T/C [2]: 105 % of control

— PubChem BioAssay AID260 (DTP/NCI, 2004)
